Test: Biodistribution of Tc-99m (III) complexes in guinea pigs
Format: in vivo
From the text: Biodistribution Data of Selected Tc-99m (III) Complexes in Guinea Pigs

| % Heart uptake (5 min) [%Injected dose/Organ] | % Heart uptake (60 min) [%Injected dose/Organ] | Heart/Blood (ratio at 5 min) | Heart/Liver (ratio at 5 min) | Heart/Blood (ratio at 60 min) | Heart/Liver (ratio at 60 min) | Substance |
| --- | --- | --- | --- | --- | --- | --- |
| 0.8 | 0.9 | 5.4 | 1.2 | 58.6 | 3.0 | trans-[1,2-bis[dihydro-2,2,5,5-tetramethyl-3(2H)furanone-4-methyleneamino]ethane]bis-tris(2-(2-(1,3-dioxanyl))]ethylphosphine]technetium-99m(III) [Complex IV] |
| 1.1 | 1.0 | 5.9 | 0.9 | 3.5 | 1.5 | trans-[1,2-bis[dihydro-2,2,5,5-tetramethyl-3(2H)furanthione-4-methyleneamino]ethane]-bis[tris(3-methoxypropyl)phosphine]technetium-99m (III) [Complex III] |
| 0.9 | 0.8 | 6.1 | 1.6 | 26.5 | 5.6 | trans-[1-[dihydro-2,2,5,5-tetramethyl-3(2H)furanthione-4-methyleneamino]-2-[dihydro-2,2,5,5-tetramethyl-3(2H)furanone-4-methyleneaminoethane]bis[tris(3-methoxypropyl)phosphine]technetium99 m(III) [Complex II] |

| Substance | % Heart uptake (5 min) [%Injected dose/Organ] | % Heart uptake (60 min) [%Injected dose/Organ] | Heart/Blood (ratio at 5 min) | Heart/Liver (ratio at 5 min) | Heart/Blood (ratio at 60 min) | Heart/Liver (ratio at 60 min) |
| --- | --- | --- | --- | --- | --- | --- |
| trans-[1,2-bis[dihydro-2,2,5,5-tetramethyl-3(2H)furanone-4-methyleneamino]ethane]bis-[tris(3-methoxypropyl)phosphine]technetium-99 m(III) [Complex I] | 0.8 | 0.9 | 4.6 | 1.5 | 35.6 | 6.6 |

Source: patent US5112595A, “99MTC(III) myocardial imaging agents and method of use” (Mallinckrodt Medical, Inc., priority 1990, dated 1992)
